From ChEMBL document CHEMBL4145594, “Discovery of N-Alkyl Piperazine Side Chain Based CXCR4 Antagonists with Improved Drug-like Properties” (ACS Med Chem Lett, 2018)
Calls of active or inactive are those of the source. The rule behind the calls is not given here.

Key:
[1] = target: T1, C-X-C chemokine receptor type 4 (Homo sapiens, UniProt P61073); test: Agonist activity at CXCR4 in human CCRF-CEM cells measured for 90 secs by calcium flux assay; format: functional, cell-based
[2] = target: T1, C-X-C chemokine receptor type 4; test: Antagonist activity at CXCR4 in human CCRF-CEM cells assessed as inhibition of […]-induced calcium flux pretreated for 25 mins followed by […] addition measured for 90 secs by calcium-dye based assay; format: functional, cell-based
[3] = target: Muscarinic acetylcholine receptor; test: Antagonist activity at mAChR in human CCRF-CEM cells assessed as inhibition of acetylcholine-induced calcium flux pretreated for 25 mins followed by acetylcholine addition measured for 90 secs by calcium-dye based assay; format: functional, cell-based
[4] = Stability in human liver microsomes assessed as parent compound remaining at 0.5 uM after 10 mins by LC-MS analysis
[5] = target: Cytochrome P450 2D6 (Homo sapiens, UniProt P10635)
Description: Inhibition of recombinant human CYP2D6 expressed in insect cell microsomes using AMMC as substrate pretreated for 30 mins followed by NADPH addition measured after 45 mins by fluorescence assay

[6] = in vitro; details: PAMPA, pH 7.4
Description: Permeability of the compound at pH 7.4 after 4 hrs by PAMPA

[7] = target: Cytochrome P450 3A4 (Homo sapiens, UniProt P08684); test: Inhibition of CYP3A4 (unknown origin); format: ADME
[8] = Stability in mouse liver microsomes assessed as parent compound remaining at 0.5 uM after 10 mins by LC-MS analysis
[9] = Stability in rat liver microsomes assessed as parent compound remaining at 0.5 uM after 10 mins by LC-MS analysis
[10] = species on record: Homo sapiens; test: Therapeutic index, ratio of IC50 for AChE (unknown origin) to IC50 for CXCR4 in human CCRF-CEM cells; format: cell-based
[11] = species on record: Homo sapiens; test: Therapeutic index, ratio of IC50 for mu opioid receptor (unknown origin) to IC50 for CXCR4 in human CCRF-CEM cells; format: cell-based
[12] = target: Acetylcholine receptor subunit alpha (Homo sapiens, UniProt P02708); test: Inhibition of nAChR alpha1 (unknown origin)
[13] = target: Mu-type opioid receptor (Homo sapiens, UniProt P35372); test: Inhibition of mu opioid receptor (unknown origin)
[14] = target: T2, Alpha-2A adrenergic receptor (Homo sapiens, UniProt P08913); test: Inhibition of adrenergic alpha2A receptor (unknown origin)
T2 sequence (P08913 whole entry): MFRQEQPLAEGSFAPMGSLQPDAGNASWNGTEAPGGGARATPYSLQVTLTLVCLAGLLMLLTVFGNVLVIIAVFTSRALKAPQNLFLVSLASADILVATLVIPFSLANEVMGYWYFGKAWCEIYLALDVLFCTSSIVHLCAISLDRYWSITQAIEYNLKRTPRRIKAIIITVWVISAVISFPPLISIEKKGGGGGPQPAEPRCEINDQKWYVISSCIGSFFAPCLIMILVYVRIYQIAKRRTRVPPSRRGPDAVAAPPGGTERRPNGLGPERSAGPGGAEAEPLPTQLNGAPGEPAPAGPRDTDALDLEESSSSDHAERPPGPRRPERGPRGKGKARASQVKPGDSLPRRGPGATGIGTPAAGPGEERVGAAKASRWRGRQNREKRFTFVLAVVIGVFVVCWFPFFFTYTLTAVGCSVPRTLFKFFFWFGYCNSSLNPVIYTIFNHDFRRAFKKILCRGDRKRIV

[15] = species on record: Homo sapiens; test: Therapeutic index, ratio of IC50 for nAChR alpha1 (unknown origin) to IC50 for CXCR4 in human CCRF-CEM cells; format: cell-based
[16] = species on record: Homo sapiens; test: Therapeutic index, ratio of IC50 for adrenergic alpha2A receptor (unknown origin) to IC50 for CXCR4 in human CCRF-CEM cells; format: cell-based
[17] = target: Acetylcholinesterase (Homo sapiens, UniProt P22303); test: Inhibition of AChE (unknown origin)
Chain of Acetylcholinesterase (P22303 whole entry): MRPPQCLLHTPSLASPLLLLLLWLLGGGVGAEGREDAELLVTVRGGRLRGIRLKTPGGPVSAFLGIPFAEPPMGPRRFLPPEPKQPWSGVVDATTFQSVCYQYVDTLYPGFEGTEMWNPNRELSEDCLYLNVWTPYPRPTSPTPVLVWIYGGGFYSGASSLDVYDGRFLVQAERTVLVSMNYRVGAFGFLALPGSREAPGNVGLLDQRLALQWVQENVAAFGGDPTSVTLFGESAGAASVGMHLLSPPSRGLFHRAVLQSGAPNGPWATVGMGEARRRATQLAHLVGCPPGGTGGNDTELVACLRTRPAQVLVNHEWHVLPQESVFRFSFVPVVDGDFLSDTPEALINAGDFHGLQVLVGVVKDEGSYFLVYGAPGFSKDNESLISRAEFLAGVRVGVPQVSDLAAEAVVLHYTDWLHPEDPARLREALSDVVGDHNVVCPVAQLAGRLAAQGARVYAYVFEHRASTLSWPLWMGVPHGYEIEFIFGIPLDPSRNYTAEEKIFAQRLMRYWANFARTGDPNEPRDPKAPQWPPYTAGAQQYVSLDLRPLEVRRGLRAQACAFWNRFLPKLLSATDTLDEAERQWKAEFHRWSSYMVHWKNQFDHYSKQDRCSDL

Chain of Mu-type opioid receptor (P35372 whole entry): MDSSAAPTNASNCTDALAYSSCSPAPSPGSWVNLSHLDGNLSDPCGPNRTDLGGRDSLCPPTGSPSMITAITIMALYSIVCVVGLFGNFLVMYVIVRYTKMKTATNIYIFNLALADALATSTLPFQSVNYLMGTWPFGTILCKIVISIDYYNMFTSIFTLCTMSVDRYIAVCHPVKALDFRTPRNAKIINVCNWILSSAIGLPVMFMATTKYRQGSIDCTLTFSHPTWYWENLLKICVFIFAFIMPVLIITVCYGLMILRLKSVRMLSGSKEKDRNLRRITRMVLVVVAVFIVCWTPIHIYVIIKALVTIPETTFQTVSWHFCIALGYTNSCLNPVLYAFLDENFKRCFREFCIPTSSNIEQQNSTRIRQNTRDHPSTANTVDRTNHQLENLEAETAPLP
Chain of Cytochrome P450 3A4 (P08684 whole entry): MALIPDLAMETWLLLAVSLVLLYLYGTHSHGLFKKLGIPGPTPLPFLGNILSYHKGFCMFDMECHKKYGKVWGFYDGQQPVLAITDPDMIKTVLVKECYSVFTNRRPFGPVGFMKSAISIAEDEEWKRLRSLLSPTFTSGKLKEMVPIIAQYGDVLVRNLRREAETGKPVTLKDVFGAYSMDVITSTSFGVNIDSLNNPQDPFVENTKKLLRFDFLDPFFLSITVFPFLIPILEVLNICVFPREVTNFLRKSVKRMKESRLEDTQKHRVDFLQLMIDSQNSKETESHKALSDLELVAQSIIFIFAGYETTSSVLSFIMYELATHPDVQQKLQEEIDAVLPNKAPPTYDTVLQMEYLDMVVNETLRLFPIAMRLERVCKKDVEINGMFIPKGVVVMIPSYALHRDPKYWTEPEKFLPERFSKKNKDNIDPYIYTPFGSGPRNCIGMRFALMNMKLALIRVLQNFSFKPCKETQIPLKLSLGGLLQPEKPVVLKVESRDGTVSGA
Chain of Acetylcholine receptor subunit alpha (P02708 whole entry): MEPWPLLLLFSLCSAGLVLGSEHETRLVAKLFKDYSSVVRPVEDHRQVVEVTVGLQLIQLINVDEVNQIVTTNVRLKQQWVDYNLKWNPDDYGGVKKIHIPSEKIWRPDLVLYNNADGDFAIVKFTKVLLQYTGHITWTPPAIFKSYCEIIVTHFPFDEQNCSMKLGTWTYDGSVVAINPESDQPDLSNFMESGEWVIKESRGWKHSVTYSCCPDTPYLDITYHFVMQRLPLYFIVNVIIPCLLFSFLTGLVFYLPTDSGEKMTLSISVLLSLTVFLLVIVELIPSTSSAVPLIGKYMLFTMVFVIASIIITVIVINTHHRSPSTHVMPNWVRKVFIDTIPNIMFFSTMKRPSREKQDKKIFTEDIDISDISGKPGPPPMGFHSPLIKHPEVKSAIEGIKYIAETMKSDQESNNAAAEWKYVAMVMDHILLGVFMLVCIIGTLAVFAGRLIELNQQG
T1 sequence (P61073 whole entry): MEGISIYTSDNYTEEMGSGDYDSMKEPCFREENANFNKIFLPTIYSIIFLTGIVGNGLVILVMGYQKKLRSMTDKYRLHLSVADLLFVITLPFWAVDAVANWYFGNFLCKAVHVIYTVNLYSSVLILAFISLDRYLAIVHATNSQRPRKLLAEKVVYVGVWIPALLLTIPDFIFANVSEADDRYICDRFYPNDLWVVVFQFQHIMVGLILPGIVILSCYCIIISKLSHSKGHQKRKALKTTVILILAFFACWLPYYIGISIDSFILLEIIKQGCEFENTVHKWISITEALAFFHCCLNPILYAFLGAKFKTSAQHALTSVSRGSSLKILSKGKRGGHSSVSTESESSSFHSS
Chain of Cytochrome P450 2D6 (P10635 whole entry): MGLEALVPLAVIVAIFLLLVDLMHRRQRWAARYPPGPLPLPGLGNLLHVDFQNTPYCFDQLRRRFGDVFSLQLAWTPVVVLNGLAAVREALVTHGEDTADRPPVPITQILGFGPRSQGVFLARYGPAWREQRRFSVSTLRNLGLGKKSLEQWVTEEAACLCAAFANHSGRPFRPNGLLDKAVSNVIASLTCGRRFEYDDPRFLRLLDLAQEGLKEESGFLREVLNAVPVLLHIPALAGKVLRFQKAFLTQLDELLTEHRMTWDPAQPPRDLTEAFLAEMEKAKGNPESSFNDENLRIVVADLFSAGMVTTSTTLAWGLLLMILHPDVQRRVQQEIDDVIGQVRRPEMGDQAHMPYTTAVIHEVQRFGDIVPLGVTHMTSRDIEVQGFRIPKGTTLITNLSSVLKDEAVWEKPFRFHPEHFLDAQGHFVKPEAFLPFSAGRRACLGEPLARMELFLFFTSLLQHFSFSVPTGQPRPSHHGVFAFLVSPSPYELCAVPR

Structure (SMILES)	Activity [1]	IC50 [2] [µM]	IC50 [3] [µM]	remaining at 10 min, 0.5 µM [4] [%]	IC50 [5] [µM]	Papp at 4 h [6] [×10⁻⁶ cm/s]	IC50 [7] [µM]	remaining at 10 min, 0.5 µM [8] [%]	remaining at 10 min, 0.5 µM [9] [%]	Ratio IC50 [10]	Ratio IC50 [11]	IC50 [12] [µM]	IC50 [13] [µM]	IC50 [14] [µM]	Ratio IC50 [15]	Ratio IC50 [16]	IC50 [17] [µM]
CC(C)N1CCN(CCCN(C[C@H]2Cc3ccccc3CN2)[C@H]2CCCc3cccnc32)CC1	inactive	0.062	> 17	46	6.65	34.4	> 20	58	4	–	–	–	–	–	–	–	–
c1ccc2c(c1)CN[C@H](CN(CCCN1CCNCC1)[C@H]1CCCc3cccnc31)C2	inactive	1.15	> 17	99	1.4	1.6	> 20	88	88	–	–	–	–	–	–	–	–
c1cnc(CN(CCCN2CCNCC2)[C@H]2CCCc3cccnc32)nc1	inactive	–	> 17	100	> 20	3.1	> 20	78	68	–	–	–	–	–	–	–	–
CN1CCN(CCCN(C[C@H]2Cc3ccccc3CN2)[C@H]2CCCc3cccnc32)CC1	inactive	0.125	6.56	72	5.6	36	> 20	53	10	–	–	–	–	–	–	–	–
NCCCCN(Cc1nc2ccccc2[nH]1)[C@H]1CCCc2cccnc21 [MAVORIXAFOR]	inactive	–	> 17	–	–	–	–	–	–	–	–	–	–	–	–	–	–
c1cnc2c(c1)CN[C@@H](CN(CCCN1CCNCC1)[C@H]1CCCc3cccnc31)C2	inactive	0.171	> 17	79	> 20	0.9	> 20	78	79	–	–	–	–	–	–	–	–
c1ccc2c(c1)CN[C@@H](CN(CC1CCNCC1)[C@H]1CCCc3cccnc31)C2	inactive	0.065	> 14	86	1.87	–	> 12	13	65	–	–	–	–	–	–	–	–
c1ccc2c(c1)CN[C@@H](CN(CCN1CCNCC1)[C@H]1CCCc3cccnc31)C2	inactive	0.553	> 14	96	4.21	1	> 12	79	62	< 100	–	–	–	–	–	–	–
c1ccc2c(c1)CN[C@@H](CN(CCCCN1CCNCC1)[C@H]1CCCc3cccnc31)C2	inactive	0.066	> 14	82	1.43	1.4	> 12	96	15	–	–	–	–	–	–	–	–
CN1CCN(CCCN(CC2Cc3ccccc3CN2C)[C@H]2CCCc3cccnc32)CC1 (single isomer, unassigned)	inactive	0.536	> 17	60	5.14	51.3	> 20	43	2	–	–	–	–	–	–	–	–
c1ccc2c(c1)CN[C@@H](CN(CCCN1CCNCC1)[C@H]1CCCc3cccnc31)C2	inactive	0.017	> 14	100	2.14	–	> 12	92	100	< 100	< 100	> 30	> 30	> 30	< 100	< 100	> 30
NC(=O)N1CCN(CCCN(C[C@H]2Cc3ccccc3CN2)[C@H]2CCCc3cccnc32)CC1	inactive	0.959	4.98	79	4.14	6.7	> 20	42	4	–	–	–	–	–	–	–	–
CCN1CCN(CCCN(C[C@H]2Cc3ccccc3CN2)[C@H]2CCCc3cccnc32)CC1	inactive	0.033	> 17	59	> 20	31.7	> 20	19	1	–	–	–	–	–	–	–	–
c1cnc2c(c1)CN[C@H](CN(CCCN1CCNCC1)[C@H]1CCCc3cccnc31)C2	inactive	2.64	> 17	100	> 20	–	> 20	63	87	–	–	–	–	–	–	–	–
c1ccc2c(c1)CN[C@@H](CN(CC[C@H]1CCCNC1)[C@H]1CCCc3cccnc31)C2	inactive	0.016	> 14	93	0.11	5.5	> 12	56	55	< 100	100 to 1000	11.3	11.3	5.9	< 100	100 to 1000	10.7
c1ccc2c(c1)CN[C@@H](CN(CCCN1CCN(C3CC3)CC1)[C@H]1CCCc3cccnc31)C2	inactive	0.05	> 17	21	6.04	50.5	> 20	3	2	–	–	–	–	–	–	–	–
c1cnc2c(c1)CCC[C@@H]2N(CCCN1CCNCC1)Cc1nc2ccccc2s1	inactive	–	> 17	50	> 20	–	9.4	45	21	–	–	–	–	–	–	–	–
c1cnc2c(c1)CCC[C@@H]2N(CCCN1CCNCC1)Cc1nc2ccccc2[nH]1	inactive	–	> 17	63	> 20	14.6	12.7	68	29	–	–	–	–	–	–	–	–
NCCCCN(C[C@H]1Cc2ccccc2CN1)[C@H]1CCCc2cccnc21	inactive	–	–	–	–	–	–	–	–	–	–	> 30	14.9	3.7	–	–	> 30
c1cnc2c(c1)CCC[C@@H]2N(CCCN1CCNCC1)Cc1cc2ccccc2cn1	inactive	0.017	3.2	66	2.96	24.3	> 20	74	59	–	–	–	–	–	–	–	–
c1ccc2c(c1)CN[C@@H](CN(CC[C@@H]1CCCNC1)[C@H]1CCCc3cccnc31)C2	inactive	0.161	> 14	75	0.03	–	> 12	23	28	–	–	–	–	–	–	–	–
c1ccc2c(c1)CN[C@@H](CN(CCC1CCNCC1)[C@H]1CCCc3cccnc31)C2	inactive	0.15	> 14	66	1.04	1.9	> 12	32	17	–	–	–	–	–	–	–	–
